The source of these data is US8790640B1, “Treating inflammation with a binding system” (LiveLeaf, Inc., priority 2011, dated 2014).

This data set is described as follows: Hydrogen peroxide retention of extracts after desiccation and rehydration (colorimetric strips). It is filed as physicochemical. The settings on record: dissolved in 35% hydrogen peroxide, heated at 80° C., rehydrated. The protocol:
In order to compare the samples provided above, a test series was prepared in 30 ml tubes containing from 1 g˜10 g of the above extracts of Chinese Gall, Green Tea, Pomegranate and Resveratrol. Each was dissolved in 20 ml of 35% hydrogen peroxide then separate to two aliquots. One part was heated at 80° C. to a dark viscous semi-liquid and allowed to desiccate to a final volume of 5 ml. Each was rehydrated and serially diluted to detection range.

`Oc1ccc(C=Cc2cc(O)cc(O)c2)cc1` [resveratrol, Resveratrol]: the peroxide retention capability result is reported as “relatively less ability to form stable perhydrates”.
